Data: PMC5218480 (PLoS ONE, 2017)

Test system: MV-4-11 cells
Assay: Gene expression microarray analysis (Affymetrix PrimeView) and GSEA
Format: cell-based, human
Set-up: RFU PODN (11730768_x_at) / Fold change /veh PODN (11730768_x_at) / RFU LINC00158 (11744669_a_at) / Fold change /veh LINC00158 (11744669_a_at) / RFU DUSP10 (11751237_a_at) / Fold change /veh DUSP10 (11751237_a_at) / RFU ID3 (11757404_x_at) / Fold change /veh ID3 (11757404_x_at) / RFU PLEKHG5 (11737974_s_at) / Fold change /veh PLEKHG5 (11737974_s_at) / RFU LRRC4B (11730491_at) / Fold change /veh LRRC4B (11730491_at) / RFU GIMAP4 (11747438_a_at) / Fold change /veh GIMAP4 (11747438_a_at) / RFU KRT8 (11758183_x_at) / Fold change /veh KRT8 (11758183_x_at) / RFU CNN1 (11734310_a_at) / Fold change /veh CNN1 (11734310_a_at) / RFU VPS37D (11726825_at) / Fold change /veh VPS37D (11726825_at) / RFU C10orf10 (11716522_x_at) / Fold change /veh C10orf10 (11716522_x_at) / RFU KIR2DL2 /// KIR2DL4 /// KIR2DL5A /// KIR2DL5B /// KIR2DS1 /// KIR2DS2 /// KIR2DS3 /// KIR2DS4 /// KIR3DL3 /// KIR3DL3 /// KIR3DS1 (11738374_at) / Fold change /veh KIR2DL2 /// KIR2DL4 /// KIR2DL5A /// KIR2DL5B /// KIR2DS1 /// KIR2DS2 /// KIR2DS3 /// KIR2DS4 /// KIR3DL3 /// KIR3DL3 /// KIR3DS1 (11738374_at) / RFU C1QL1 (11718748_at) / Fold change /veh C1QL1 (11718748_at) / RFU TMPRSS4 (11747572_a_at) / Fold change /veh TMPRSS4 (11747572_a_at) / RFU HAMP (11756126_x_at) / Fold change /veh HAMP (11756126_x_at) / RFU RNFT2 (11725882_a_at) / Fold change /veh RNFT2 (11725882_a_at) / RFU NR4A2 (11747474_a_at) / Fold change /veh NR4A2 (11747474_a_at) / RFU ABCC12 (11746883_a_at) / Fold change /veh ABCC12 (11746883_a_at) / RFU TMEM136 (11760407_x_at) / Fold change /veh TMEM136 (11760407_x_at) / RFU CLDN22 /// WWC2 (11732394_at) / Fold change /veh CLDN22 /// WWC2 (11732394_at) / RFU HLA-DPB1 (11760878_x_at) / Fold change /veh HLA-DPB1 (11760878_x_at) / RFU SPINT1 (11716480_a_at) / Fold change /veh SPINT1 (11716480_a_at) / RFU GAP43 (11754022_s_at) / Fold change /veh GAP43 (11754022_s_at) / RFU A4GNT (11735810_at) / Fold change /veh A4GNT (11735810_at) / RFU PRB3 (11715151_x_at) / Fold change /veh PRB3 (11715151_x_at) / RFU TUBB4B (11761932_at) / Fold change /veh TUBB4B (11761932_at) / RFU CAPN14 (11732068_a_at) / Fold change /veh CAPN14 (11732068_a_at) / RFU TMCC2 (11721928_a_at) / Fold change /veh TMCC2 (11721928_a_at) / RFU IRGQ (11745062_a_at) / Fold change /veh IRGQ (11745062_a_at) / RFU FAM174B (11720279_a_at) / Fold change /veh FAM174B (11720279_a_at) / RFU TMPRSS4 (11748680_a_at) / Fold change /veh TMPRSS4 (11748680_a_at) / RFU FAM212B (11763350_a_at) / Fold change /veh FAM212B (11763350_a_at) / RFU PLEKHG5 (11743358_a_at) / Fold change /veh PLEKHG5 (11743358_a_at) / RFU ZSCAN30 (11745921_a_at) / Fold change /veh ZSCAN30 (11745921_a_at) / RFU CMKLR1 (11741424_a_at) / Fold change /veh CMKLR1 (11741424_a_at) / RFU LOC101060620 /// MAPK8IP1 (11723275_at) / Fold change /veh LOC101060620 /// MAPK8IP1 (11723275_at) / RFU SPTSSB (11747773_x_at) / Fold change /veh SPTSSB (11747773_x_at) / RFU PRSS12 (11739890_at) / Fold change /veh PRSS12 (11739890_at) / RFU BIN1 (11741810_x_at) / Fold change /veh BIN1 (11741810_x_at) / RFU WNT11 (11732464_a_at) / Fold change /veh WNT11 (11732464_a_at) / RFU C10orf10 (11716521_a_at) / Fold change /veh C10orf10 (11716521_a_at) / RFU C5orf56 (11738089_at) / Fold change /veh C5orf56 (11738089_at) / RFU CYB561 (11721691_x_at) / Fold change /veh CYB561 (11721691_x_at) / RFU ANKRD19P (11752326_a_at) / Fold change /veh ANKRD19P (11752326_a_at) / RFU OR2T12 /// OR2T33 /// OR2T8 (11738714_s_at) / Fold change /veh OR2T12 /// OR2T33 /// OR2T8 (11738714_s_at) / RFU VCAN (11748164_a_at) / Fold change /veh VCAN (11748164_a_at) / RFU JSRP1 (11732532_at) / Fold change /veh JSRP1 (11732532_at) / RFU KRTAP10-11 (11738290_x_at) / Fold change /veh KRTAP10-11 (11738290_x_at) / RFU MYO3A (11730013_a_at) / Fold change /veh MYO3A (11730013_a_at) / RFU EBF3 (11725865_a_at) / Fold change /veh EBF3 (11725865_a_at) / RFU CAMK2N1 (11719241_x_at) / Fold change /veh CAMK2N1 (11719241_x_at) / RFU C5orf56 (11738088_a_at) / Fold change /veh C5orf56 (11738088_a_at) / RFU OLFML3 (11715873_a_at) / Fold change /veh OLFML3 (11715873_a_at) / RFU LOC100653217 /// NTM (11731650_a_at) / Fold change /veh LOC100653217 /// NTM (11731650_a_at) / RFU MAPK11 (11762145_a_at) / Fold change /veh MAPK11 (11762145_a_at) / RFU FIZ1 (11724087_x_at) / Fold change /veh FIZ1 (11724087_x_at) / RFU OASL (11726364_x_at) / Fold change /veh OASL (11726364_x_at) / RFU SOX15 (11748057_x_at) / Fold change /veh SOX15 (11748057_x_at) / RFU CD79A (11719716_a_at) / Fold change /veh CD79A (11719716_a_at) / RFU HIST1H1D (11736915_at) / Fold change /veh HIST1H1D (11736915_at) / RFU CASKIN2 (11723855_a_at) / Fold change /veh CASKIN2 (11723855_a_at) / RFU LOC730098 (11760151_x_at) / Fold change /veh LOC730098 (11760151_x_at) / RFU OR4N2 (11742367_at) / Fold change /veh OR4N2 (11742367_at) / RFU PRRT2 (11749266_a_at) / Fold change /veh PRRT2 (11749266_a_at) / RFU SNX32 (11753110_a_at) / Fold change /veh SNX32 (11753110_a_at) / RFU CDHR5 (11726645_a_at) / Fold change /veh CDHR5 (11726645_a_at) / RFU RCAN1 (11760418_a_at) / Fold change /veh RCAN1 (11760418_a_at) / RFU FAM167A (11723789_a_at) / Fold change /veh FAM167A (11723789_a_at) / RFU FAM26E (11764081_at) / Fold change /veh FAM26E (11764081_at) / RFU ISYNA1 (11749810_s_at) / Fold change /veh ISYNA1 (11749810_s_at) / RFU ACY1 (11761880_at) / Fold change /veh ACY1 (11761880_at) / RFU 11764098_at / Fold change /veh 11764098_at / RFU SAMD14 (11745864_x_at) / Fold change /veh SAMD14 (11745864_x_at) / RFU NPB (11741838_a_at) / Fold change /veh NPB (11741838_a_at) / RFU TMPRSS6 (11731388_a_at) / Fold change /veh TMPRSS6 (11731388_a_at) / RFU KRTAP10-2 (11738614_at) / Fold change /veh KRTAP10-2 (11738614_at) / RFU ARHGAP8 /// PRR5-ARHGAP8 (11727945_x_at) / Fold change /veh ARHGAP8 /// PRR5-ARHGAP8 (11727945_x_at) / RFU KRTAP5-7 /// NADSYN1 (11734609_at) / Fold change /veh KRTAP5-7 /// NADSYN1 (11734609_at) / RFU RASL12 (11751679_a_at) / Fold change /veh RASL12 (11751679_a_at) / RFU CDKN2B (11736163_a_at) / Fold change /veh CDKN2B (11736163_a_at) / RFU PRF1 (11729649_at) / Fold change /veh PRF1 (11729649_at) / RFU, ZNF638 /// ZNF638-IT1 / Fold change vs veh, ZNF638 /// ZNF638-IT1 / RFU, PANK3 / Fold change vs veh, PANK3 / RFU, SH3YL1 / Fold change vs veh, SH3YL1 / RFU, ZEB2 / Fold change vs veh, ZEB2 / RFU, NRIP1 / Fold change vs veh, NRIP1 / RFU, PTTG1IP / Fold change vs veh, PTTG1IP / RFU, CAPN2 / Fold change vs veh, CAPN2 / RFU, MED14 / Fold change vs veh, MED14 / RFU, SNORA58 / Fold change vs veh, SNORA58 / RFU, C1orf63 / Fold change vs veh, C1orf63 / RFU, LRRFIP1 / Fold change vs veh, LRRFIP1 / RFU, NDUFAF7 / Fold change vs veh, NDUFAF7 / RFU, SLC12A2 / Fold change vs veh, SLC12A2 / RFU, IBTK / Fold change vs veh, IBTK / RFU, ESF1 / Fold change vs veh, ESF1 / Fold change vs veh, TMEM50B / RFU, TAOK1 / Fold change vs veh, TAOK1 / RFU, ACBD3 / Fold change vs veh, ACBD3 / RFU, TMA16 / Fold change vs veh, TMA16 / RFU, RWDD3 / Fold change vs veh, RWDD3 / RFU, BCAT1 / Fold change vs veh, BCAT1 / RFU, EDEM3 / Fold change vs veh, EDEM3 / RFU, TMEM33 / Fold change vs veh, TMEM33 / RFU, WDR75 / Fold change vs veh, WDR75 / RFU, AHCTF1 / Fold change vs veh, AHCTF1 / RFU, TFRC / Fold change vs veh, TFRC / RFU, ZDHHC17 / Fold change vs veh, ZDHHC17 / RFU, NOM1 / Fold change vs veh, NOM1 / RFU, ARL8B / Fold change vs veh, ARL8B / RFU, ZBTB11 / Fold change vs veh, ZBTB11 / RFU, TAMM41 / Fold change vs veh, TAMM41 / RFU, KIAA1704 /// LOC100996395 / Fold change vs veh, KIAA1704 /// LOC100996395 / RFU, ING1 / Fold change vs veh, ING1 / RFU, TRMT61B / Fold change vs veh, TRMT61B / RFU, FUBP3 / Fold change vs veh, FUBP3 / RFU, TP53 / Fold change vs veh, TP53 / RFU, TNKS2 / Fold change vs veh, TNKS2 / RFU, ZFP14 / Fold change vs veh, ZFP14 / RFU, ACTR2 / Fold change vs veh, ACTR2 / RFU, PPP3R1 / Fold change vs veh, PPP3R1 / RFU, PIK3R1 / Fold change vs veh, PIK3R1 / RFU, HNRNPA1 / Fold change vs veh, HNRNPA1 / RFU, RNF170 / Fold change vs veh, RNF170 / RFU, ZNF28 / Fold change vs veh, ZNF28 / RFU, RNGTT / Fold change vs veh, RNGTT / RFU, OGT / Fold change vs veh, OGT / RFU, BRD1 / Fold change vs veh, BRD1 / RFU, MARS / Fold change vs veh, MARS / RFU, ZNF655 / Fold change vs veh, ZNF655 / RFU, FAHD1 / Fold change vs veh, FAHD1 / RFU, BDP1 / Fold change vs veh, BDP1 / RFU, LRRCC1 / Fold change vs veh, LRRCC1 / RFU, ARID1A / Fold change vs veh, ARID1A / RFU, ZNF146 / Fold change vs veh, ZNF146 / RFU, ZNF330 / Fold change vs veh, ZNF330 / RFU, GPN3 / Fold change vs veh, GPN3 / RFU, C9orf123 / Fold change vs veh, C9orf123 / RFU, N4BP2L2 / Fold change vs veh, N4BP2L2 / RFU, ARFIP1 / Fold change vs veh, ARFIP1 / RFU, FAM179B / Fold change vs veh, FAM179B / RFU, BCL10 / Fold change vs veh, BCL10 / RFU, UHRF1BP1L / Fold change vs veh, UHRF1BP1L / RFU, BET1 / Fold change vs veh, BET1 / RFU, CNOT2 / Fold change vs veh, CNOT2 / RFU, ZNF268 / Fold change vs veh, ZNF268 / Fold change vs veh, ZNF507 / RFU, DGCR2 / Fold change vs veh, DGCR2 / RFU, WDSUB1 / Fold change vs veh, WDSUB1 / Fold change vs veh, HSP90B1 /// MIR3652 / RFU, ADSS / Fold change vs veh, ADSS / RFU, GK / Fold change vs veh, GK / RFU, ZNF148 / Fold change vs veh, ZNF148 / RFU, TAF9 / Fold change vs veh, TAF9 / RFU, SLC1A5 / Fold change vs veh, SLC1A5 / RFU, SLMO2 / Fold change vs veh, SLMO2 / RFU, ABCC4 / Fold change vs veh, ABCC4 / RFU, LOC101060439 /// RAP1B / Fold change vs veh, LOC101060439 /// RAP1B / RFU, RFX7 / Fold change vs veh, RFX7 / RFU, GTPBP10 / Fold change vs veh, GTPBP10 / RFU, CNEP1R1 / Fold change vs veh, CNEP1R1 / RFU, BIVM-ERCC5 /// ERCC5 / Fold change vs veh, BIVM-ERCC5 /// ERCC5 / RFU, ILF3 / Fold change vs veh, ILF3 / RFU 11762660_at / Fold change /veh 11762660_at / RFU VCAN (11757783_s_at) / Fold change /veh VCAN (11757783_s_at) / RFU DDX43 (11728927_at) / Fold change /veh DDX43 (11728927_at) / RFU KRT8 (11758188_x_at) / Fold change /veh KRT8 (11758188_x_at) / RFU NKD1 (11759106_at) / Fold change /veh NKD1 (11759106_at) / RFU SRD5A1 (11742802_a_at) / Fold change /veh SRD5A1 (11742802_a_at) / RFU TPSAB1 /// TPSB2 (11721975_s_at) / Fold change /veh TPSAB1 /// TPSB2 (11721975_s_at) / RFU GSTM3 (11746129_a_at) / Fold change /veh GSTM3 (11746129_a_at) / RFU IL23R (11737362_x_at) / Fold change /veh IL23R (11737362_x_at) / RFU TMEM51 (11727254_a_at) / Fold change /veh TMEM51 (11727254_a_at) / RFU PIWIL2 (11732686_x_at) / Fold change /veh PIWIL2 (11732686_x_at) / RFU ORM1 (11744905_x_at) / Fold change /veh ORM1 (11744905_x_at) / RFU CCDC152 (11743942_at) / Fold change /veh CCDC152 (11743942_at) / RFU ECM1 (11717891_a_at) / Fold change /veh ECM1 (11717891_a_at) / RFU IL23R (11748794_a_at) / Fold change /veh IL23R (11748794_a_at) / RFU TNFAIP8L3 (11732012_x_at) / Fold change /veh TNFAIP8L3 (11732012_x_at) / RFU MBOAT4 (11741988_at) / Fold change /veh MBOAT4 (11741988_at) / RFU 11764193_at / Fold change /veh 11764193_at / RFU TMEM53 (11763286_at) / Fold change /veh TMEM53 (11763286_at) / RFU MAGEB2 (11727129_at) / Fold change /veh MAGEB2 (11727129_at) / RFU TMEM200A (11744735_a_at) / Fold change /veh TMEM200A (11744735_a_at) / RFU CCDC152 (11751479_a_at) / Fold change /veh CCDC152 (11751479_a_at) / RFU FAM211A (11726209_a_at) / Fold change /veh FAM211A (11726209_a_at) / RFU RGS16 (11746705_a_at) / Fold change /veh RGS16 (11746705_a_at) / RFU VCAN (11755009_s_at) / Fold change /veh VCAN (11755009_s_at) / RFU RHOB (11743442_s_at) / Fold change /veh RHOB (11743442_s_at) / RFU RGS16 (11720943_a_at) / Fold change /veh RGS16 (11720943_a_at) / RFU RGS16 (11720944_at) / Fold change /veh RGS16 (11720944_at) / RFU, VPS4B / Fold change vs veh, VPS4B / RFU, CREB1 / Fold change vs veh, CREB1 / RFU, DNAJC13 / Fold change vs veh, DNAJC13 / RFU, GNAQ / Fold change vs veh, GNAQ / RFU, CDK5R1 / Fold change vs veh, CDK5R1 / RFU, ZRANB3 / Fold change vs veh, ZRANB3 / RFU, CUL4A / Fold change vs veh, CUL4A / RFU, CCNY / Fold change vs veh, CCNY / RFU, UFL1 / Fold change vs veh, UFL1 / RFU, COG3 / Fold change vs veh, COG3 / RFU, DIAPH2 / Fold change vs veh, DIAPH2 / RFU, SKA2 / Fold change vs veh, SKA2 / RFU, AFF3 / Fold change vs veh, AFF3 / RFU, LMF1 / Fold change vs veh, LMF1 / RFU, IPO11 / Fold change vs veh, IPO11 / RFU, DFFB / Fold change vs veh, DFFB / RFU, FOXP1 / Fold change vs veh, FOXP1 / RFU, CARD8 / Fold change vs veh, CARD8 / RFU, STRN3 / Fold change vs veh, STRN3 / RFU, ADK / Fold change vs veh, ADK / RFU, RASSF2 / Fold change vs veh, RASSF2 / RFU, WIPF1 / Fold change vs veh, WIPF1 / RFU, LARP1B / Fold change vs veh, LARP1B / RFU, RASA1 / Fold change vs veh, RASA1 / RFU, RB1 / Fold change vs veh, RB1 / RFU, PPFIA1 / Fold change vs veh, PPFIA1 / RFU, MAT2A / Fold change vs veh, MAT2A / RFU, CCT5 / Fold change vs veh, CCT5 / RFU, WDR92 / Fold change vs veh, WDR92 / RFU, CUX1 / Fold change vs veh, CUX1 / RFU, TTC7A / Fold change vs veh, TTC7A / RFU, TMEM135 / Fold change vs veh, TMEM135 / RFU, DEPTOR / Fold change vs veh, DEPTOR / RFU, CPM / Fold change vs veh, CPM / RFU, DNAJB6 / Fold change vs veh, DNAJB6 / RFU, CACNA2D3 / Fold change vs veh, CACNA2D3 / RFU, DTX4 / Fold change vs veh, DTX4 / RFU, TFCP2 / Fold change vs veh, TFCP2 / RFU, GMCL1 /// GMCL1P1 / Fold change vs veh, GMCL1 /// GMCL1P1 / RFU, AEBP2 / Fold change vs veh, AEBP2 / RFU, SNHG1 /// SNORD22 /// SNORD25 /// SNORD26 /// SNORD27 /// SNORD28 /// SNORD29 /// SNORD31 / Fold change vs veh, SNHG1 /// SNORD22 /// SNORD25 /// SNORD26 /// SNORD27 /// SNORD28 /// SNORD29 /// SNORD31 / Fold change (Aza/veh), C12orf56 (ProbeSet 11735607_a_at) / Fold change (ACY-1035/veh), C12orf56 (ProbeSet 11735607_a_at) / Fold change (Aza/veh), FGFR1OP (ProbeSet 11751329_s_at) / Fold change (ACY-1035/veh), FGFR1OP (ProbeSet 11751329_s_at) / Fold change (Aza/veh), VPS36 (ProbeSet 11739960_a_at) / Fold change (ACY-1035/veh), VPS36 (ProbeSet 11739960_a_at) / RFU SYPL1 (11715823_x_at) / Fold change /veh SYPL1 (11715823_x_at) / RFU IGFBP7 (11715501_s_at) / Fold change /veh IGFBP7 (11715501_s_at) / RFU REEP3 (11722064_at) / Fold change /veh REEP3 (11722064_at) / RFU IGLL1 (11728026_x_at) / Fold change /veh IGLL1 (11728026_x_at): dose or concentration left out as unconfirmed
Conditions: MV-4-11 cells, 48 hours

Nc1ccc(-c2cccs2)cc1NC(=O)c1ccc2c(c1)cc(C1CC1)n2CCN1CCOCC1 [ACY-1035]
Fold change /veh C5orf56 (11738088_a_at): 0.99
